The values below come from US20220056043A1, “NITROGEN-CONTAINING FUSED CYCLIC COMPOUND, PREPARATION METHOD THEREFOR AND USE THEREOF” (SICHUAN KELUN-BIOTECH BIOPHARMACEUTICAL CO., LTD., priority 2019, published 2022).

Some results are limits rather than exact numbers.

For one test, the target named is T1, hNLRP3 inflammasome (Homo sapiens, UniProt Q96P20).
T1 construct: endogenous in cells; host or cells: THP-1 cells, PMA-differentiated
Description: Agonistic effect on the expression of IL-1β in THP-1 cells after PMA-induced differentiation (HTRF). It counts as cell-based. The conditions noted are these: IL-1β level, PMA-differentiated THP-1 cells, 6 hours. The text has this:
Experimental Example 1: Agonistic Effect of the Compound of the Invention on the Expression of IL-1β in THP-1 Cells after PMA-Induced Differentiation
In this test, a HTRF (homogeneous time-resolved fluorescence) detection method was used to test the effect of the compound of the invention on the level of downstream cytokine IL-1β of NLRP3 to evaluate the agonistic effect of the compound on hNLRP3 inflammasome or hNLRP3 inflammasome pathway at a cellular level.
Reagent: RPMI 1640 (Hyclone); heat-inactivated FBS (fetal bovine serum) (Gibco); PMA (phorbol myristal acetate) (Beyotime)
Kit: IL-1β assay kit (CISIO)
1) THP-1 cells in a logarithmic growth phase were seeded in a T75 culture flask at a density of 5×10^5 cells/well, and cultured in a cell incubator at 37° C., 5% CO2 for 24 hours, and then 1 μM PMA was used to induce THP-1 suspension cells to become adherent macrophages. The medium was RPMI 1640 containing 10% heat-inactivated FBS and 0.05 mM β-mercaptoethanol.
2) The cells were induced and cultured for 24 hours. Then the adherent cells were trypsinized and centrifuged at 1000 rpm for 5 min. The supernatant was removed, and the cells were resuspended to a density of 2×10^6 cells/mL in RPMI 1640 medium containing 2% heat-inactivated FBS. 50 μL/well of cell resuspension was taken and spread on a 96-well plate such that the number of cells in each well was 1×10^5.
3) An appropriate amount of 10 mM DMSO solution of the compound to be tested was taken and diluted to a concentration of 2× test concentration with RPMI 1640 medium containing 2% heat-inactivated FBS. 50 μL/well of the dilution was added to the cells in the 96-well plate, and mixed well. The plate was placed in a cell incubator at 37° C., 5% CO2 for 6 hours. The supernatant was collected, and the level of IL-1β was measured in accordance with the instructions of the IL-1β detection kit.
4) EC50 was fitted by the GraphPad software log(agonist) vs. response—Variable slope four-parameter method.
(In general: In TR-FRET formats the signal depends on donor and acceptor labels being close together.)

A further test has as its target T2, hTLR7 (Homo sapiens, UniProt Q9NYK1).
T2 construct: host or cells: HEK-hTLR7-NF-κB-Luciferase cells
T2 sequence (Q9NYK1 27-1049): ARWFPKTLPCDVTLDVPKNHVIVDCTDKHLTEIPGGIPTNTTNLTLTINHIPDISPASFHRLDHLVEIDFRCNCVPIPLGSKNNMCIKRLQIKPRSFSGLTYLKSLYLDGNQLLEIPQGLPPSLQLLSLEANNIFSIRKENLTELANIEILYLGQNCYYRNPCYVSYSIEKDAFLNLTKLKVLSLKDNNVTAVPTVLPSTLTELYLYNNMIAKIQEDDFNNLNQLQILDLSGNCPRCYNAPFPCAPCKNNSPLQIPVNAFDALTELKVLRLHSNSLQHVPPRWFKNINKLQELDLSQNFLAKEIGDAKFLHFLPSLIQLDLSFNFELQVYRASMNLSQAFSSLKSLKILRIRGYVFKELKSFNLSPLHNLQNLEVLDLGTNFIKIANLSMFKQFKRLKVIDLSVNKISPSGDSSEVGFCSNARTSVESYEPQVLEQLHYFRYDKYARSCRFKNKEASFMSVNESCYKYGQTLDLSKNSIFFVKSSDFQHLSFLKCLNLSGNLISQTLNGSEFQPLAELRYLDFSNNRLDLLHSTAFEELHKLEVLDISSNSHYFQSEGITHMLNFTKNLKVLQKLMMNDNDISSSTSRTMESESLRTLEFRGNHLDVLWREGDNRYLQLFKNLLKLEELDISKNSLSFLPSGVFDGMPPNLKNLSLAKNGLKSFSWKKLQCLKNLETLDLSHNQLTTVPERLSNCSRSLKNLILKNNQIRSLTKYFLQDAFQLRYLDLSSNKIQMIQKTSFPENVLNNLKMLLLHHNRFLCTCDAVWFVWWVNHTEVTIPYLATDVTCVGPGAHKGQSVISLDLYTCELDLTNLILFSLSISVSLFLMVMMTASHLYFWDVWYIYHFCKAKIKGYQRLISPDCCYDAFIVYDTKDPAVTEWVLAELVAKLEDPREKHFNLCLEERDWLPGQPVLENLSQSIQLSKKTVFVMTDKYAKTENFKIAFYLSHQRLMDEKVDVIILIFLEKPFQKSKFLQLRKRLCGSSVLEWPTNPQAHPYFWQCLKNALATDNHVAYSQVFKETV
Description: Agonistic effect on hTLR7, HEK-hTLR7-NF-κB-Luciferase reporter cells. It counts as cell-based. As to conditions: 16 hours. The text has this: Experimental Example 3: Agonistic Effect of the Compound of the Invention on hTLR7
In this test, the luciferase in HEK-hTLR7-NF-κB-reporter cells was detected to test the activating effect of the compound of the invention on TLR7 signaling pathway, so as to evaluate the specificity of the agonistic effect of the compound on NLRP3 pathway.
Reagents: DMEM (High glucose); FBS (fetal bovine serum) (Gibco); Bright-Glo™ Luciferase detection kit (Promega)
Cells: HEK-hTLR7-NF-κB-Luciferase gene cells (human TLR7 NF-κB-luciferase reporter gene cells) (Nanjing Cobioer)
1) The HEK-hTLR7-NF-κB-Luciferase cells in a logarithmic growth phase were trypsinized and resuspended in the medium to a concentration of 2×10^6 cells/mL. 50 μL/well of the cell resuspension was added to a 96-well plate such that the number of cells in each well was […]. An appropriate amount of 10 mM DMSO solution of the compound to be tested was taken and diluted to a concentration of 2× test concentration with the medium. 50 μL/well was added to the cells in the 96-well plate, and the 96-well plate was incubated in an incubator at 37° C. and 5% CO2 for 16 hours. The medium was DMEM (High glucose) containing 10% FBS.
2) After the cell incubation, 100 μL/well of Bright-Glo™ Luciferase detection reagent was added, and the mixture was incubated at room temperature for 5 minutes. Relative luciferase activity unit (RLU) was read using a microplate reader.
3) The EC50 of effect of the tested compound to stimulate hTLR7 was fitted by the GraphPad software log(agonist) vs. response—Variable slope four-parameter method.
In general terms: A reporter such as luciferase makes a cellular process visible.

T1 sequence (Q96P20 whole entry): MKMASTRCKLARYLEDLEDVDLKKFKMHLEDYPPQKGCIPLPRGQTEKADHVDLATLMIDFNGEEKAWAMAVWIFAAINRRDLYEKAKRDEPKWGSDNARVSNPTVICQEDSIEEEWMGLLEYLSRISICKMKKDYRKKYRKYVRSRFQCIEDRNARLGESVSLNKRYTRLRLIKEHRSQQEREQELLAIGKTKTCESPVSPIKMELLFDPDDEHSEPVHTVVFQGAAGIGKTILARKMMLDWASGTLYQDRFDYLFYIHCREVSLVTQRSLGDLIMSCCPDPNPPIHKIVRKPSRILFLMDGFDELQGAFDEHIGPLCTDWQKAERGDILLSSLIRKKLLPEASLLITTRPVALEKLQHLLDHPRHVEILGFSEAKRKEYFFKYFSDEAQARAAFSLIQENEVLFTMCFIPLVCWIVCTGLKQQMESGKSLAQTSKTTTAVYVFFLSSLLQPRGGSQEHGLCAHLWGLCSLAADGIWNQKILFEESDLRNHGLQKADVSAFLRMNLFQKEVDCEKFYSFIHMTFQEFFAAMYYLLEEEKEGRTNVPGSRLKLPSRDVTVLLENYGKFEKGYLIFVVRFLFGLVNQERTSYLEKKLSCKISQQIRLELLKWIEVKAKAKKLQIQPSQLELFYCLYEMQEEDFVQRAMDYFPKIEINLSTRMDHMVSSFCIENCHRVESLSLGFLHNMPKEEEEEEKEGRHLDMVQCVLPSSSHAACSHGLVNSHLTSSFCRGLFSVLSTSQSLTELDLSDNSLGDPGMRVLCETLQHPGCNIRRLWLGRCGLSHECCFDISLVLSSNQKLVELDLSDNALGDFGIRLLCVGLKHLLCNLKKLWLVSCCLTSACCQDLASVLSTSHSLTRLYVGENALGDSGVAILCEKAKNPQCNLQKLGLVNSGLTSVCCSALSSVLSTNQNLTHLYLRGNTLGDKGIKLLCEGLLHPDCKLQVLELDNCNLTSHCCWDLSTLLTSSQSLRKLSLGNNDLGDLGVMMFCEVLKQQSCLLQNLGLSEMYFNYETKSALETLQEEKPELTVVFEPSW

What is called EC50 is the concentration giving half of the maximal effect. Lower therefore signals an effect from little substance. Regarding `CN1CCC(Nc2cc(N)nc3cc(-c4ccn[nH]4)sc23)CC1` [Compound 89, N^7-(1-methylpiperidin-4-yl)-2-(1H-pyrazol-5-yl)thieno[3,2-b]pyridine-5,7-diamine], the EC50 on hNLRP3 inflammasome was 0.16 µM; at hTLR7, above 100000 nM.
For `Nc1cc(NCCCO)c2sc(-c3ccncc3)cc2n1` [Compound 90, 3-((5-amino-2-(pyridin-4-yl)thieno[3,2-b]pyridin-7-yl)amino)-1-propanol] the same measures were 6.03 µM and above 100000 nM.
In the case of `Cc1cccc(-c2cc3nc(N)cc(NCCCO)c3s2)n1` [Compound 91, 3-((5-amino-2-(6-methylpyridin-2-yl)thieno[3,2-b]pyridin-7-yl)amino)-1-propanol], the EC50 at hNLRP3 inflammasome is 0.11 µM; at hTLR7 it was above 100000 nM.
Turning to `CC(=O)N1CCC(Nc2cc(N)nc3cc(-c4ccn[nH]4)sc23)CC1` [Compound 92, 1-(4-((5-amino-2-(1H-pyrazol-5-yl)thieno[3,2-b]pyridin-7-yl)amino)piperidin-1-yl)ethanone], the EC50 is 1.12 µM at hNLRP3 inflammasome and above 100000 nM on hTLR7.
For `Nc1cc(NCCCO)c2sc(-c3ccccc3)cc2n1` [Compound 93, 3-((5-amino-2-phenylthieno[3,2-b]pyridin-7-yl)amino)-1-propanol] the same measures were 0.18 µM and above 100000 nM.
As to `CC[C@H](CO)Nc1cc(N)nc2cc(-c3ccn[nH]3)sc12` [Compound 95, (R)-2-((5-amino-2-(1H-pyrazol-5-yl)thieno[3,2-b]pyridin-7-yl)amino)butanol], the EC50 was 0.09 µM at hNLRP3 inflammasome and above 100000 nM on hTLR7.
For the compound `Nc1cc(N[C@@H]2CCC[C@@H]2O)c2sc(-c3ccn[nH]3)cc2n1` [Compound 96, (1S,2R)-2-((5-amino-2-(1H-pyrazol-5-yl)thieno[3,2-b]pyridin-7-yl)amino)cyclopentanol], the values for the EC50 on hNLRP3 inflammasome and on hTLR7 were 0.07 µM and above 100000 nM, respectively.
In the case of `Nc1cc(NCC(F)(F)c2ccccn2)c2sc(-c3ccn[nH]3)cc2n1` [Compound 97, N^7-(2,2-difluoro-2-(pyridin-2-yl)ethyl)-2-(1H-pyrazol-5-yl)thieno[3,2-b]pyridine-5,7-diamine], the EC50 on hNLRP3 inflammasome is 0.03 µM; on hTLR7, above 100000 nM.
With `CC1(O)CCN(CCNc2cc(N)nc3cc(-c4ccn[nH]4)sc23)CC1` [Compound 98, 1-(2-((5-amino-2-(1H-pyrazol-5-yl)thieno[3,2-b]pyridin-7-yl)amino)ethyl)-4-methylpiperidine-4-ol], the values for the EC50 at hNLRP3 inflammasome and on hTLR7 were 0.35 µM and above 100000 nM, respectively.
For `CC1(O)CCN(CCCNc2cc(N)nc3cc(-c4ccn[nH]4)sc23)CC1` [Compound 99, 1-(3-((5-amino-2-(1H-pyrazol-5-yl)thieno[3,2-b]pyridin-7-yl)amino)propyl)-4-methylpiperidine-4-ol] the same measures were 0.54 µM and above 100000 nM.
With `COCCNc1cc(N)nc2cc(-c3ccn[nH]3)sc12` [Compound 100, N^7-(2-methoxyethyl)-2-(1H-pyrazol-5-yl)thieno[3,2-b]pyridine-5,7-diamine], the figures for the concentration for a half-maximal effect (EC50) on hNLRP3 inflammasome and at hTLR7 were 0.03 µM and above 100000 nM, respectively.
As for `CO[C@H](C)CNc1cc(N)nc2cc(-c3ccn[nH]3)sc12` [Compound 101, (R)—N^7-(2-methoxypropyl)-2-(1H-pyrazol-5-yl)thieno[3,2-b]pyridine-5,7-diamine], the EC50 at hNLRP3 inflammasome was 0.03 µM; at hTLR7, above 100000 nM.
Regarding `Nc1cc(NCC2CC2)c2sc(-c3ccn[nH]3)cc2n1` [Compound 102, N^7-(cyclopropylmethyl)-2-(1H-pyrazol-5-yl)thieno[3,2-b]pyridine-5,7-diamine], the EC50 was 0.01 µM on hNLRP3 inflammasome and above 100000 nM on hTLR7.
Consider `CN1CCC[C@@H](Nc2cc(N)nc3cc(-c4ccn[nH]4)sc23)C1` [Compound 104, (R)—N^7-(1-methylpiperidin-3-yl)-2-(1H-pyrazol-5-yl)thieno[3,2-b]pyridine-5,7-diamine], for which the values for the EC50 at hNLRP3 inflammasome and on hTLR7 were 0.17 µM and above 100000 nM, respectively.
Regarding `Nc1cc(NC[C@@H]2CCCO2)c2sc(-c3ccn[nH]3)cc2n1` [Compound 105, (S)-2-(1H-pyrazol-5-yl)-N^7-((tetrahydrofuran-2-yl)methyl)thieno[3,2-b]pyridine-5,7-diamine], the EC50 was 0.03 µM at hNLRP3 inflammasome and above 100000 nM at hTLR7.
For `Cn1cc(CNc2cc(N)nc3cc(-c4ccn[nH]4)sc23)cn1` [Compound 106, N^7-(1-methyl-1H-pyrazol-4-yl)methyl-2-(1H-pyrazol-5-yl)thieno[3,2-b]pyridine-5,7-diamine], the EC50 on hNLRP3 inflammasome is 0.04 µM; on hTLR7, above 100000 nM.
Take `C[C@@H](CO)Nc1cc(N)nc2cc(-c3ccn[nH]3)sc12` [Compound 108, (S)-2-((5-amino-2-(1H-pyrazol-5-yl)thieno[3,2-b]pyridin-7-yl)amino)propanol]: the EC50 is 0.34 µM on hNLRP3 inflammasome and above 100000 nM at hTLR7.
For the compound `Cn1cc(-c2cc3nc(N)cc(NCCCO)c3s2)cn1` [Compound 109, 3-((5-amino-2-(1-methyl-1H-pyrazol-4-yl)thieno[3,2-b]pyridin-7-yl)amino)-1-propanol], the concentration giving a half-maximal response (EC50) at hNLRP3 inflammasome is 4.48 µM; on hTLR7, above 100000 nM.
On to `Nc1cc(NC2CCCC2)c2sc(-c3ccn[nH]3)cc2n1` [Compound 110, N^7-cyclopentyl-2-(1H-pyrazol-5-yl)thieno[3,2-b]pyridine-5,7-diamine], for which the EC50 at hNLRP3 inflammasome was 0.02 µM; at hTLR7 it was above 100000 nM.
As to `COC(C)(C)CNc1cc(N)nc2cc(-c3ccn[nH]3)sc12` [Compound 111, N^7-(2′-methoxy-2′-methylpropyl)-2-(1H-pyrazol-5-yl)thieno[3,2-b]pyridine-5,7-diamine], the EC50 on hNLRP3 inflammasome was 0.23 µM; on hTLR7 it was above 100000 nM.
On to `Nc1cc(NC2COC2)c2sc(-c3ccn[nH]3)cc2n1` [Compound 112, N^7-(oxetan-3-yl)-2-(1H-pyrazol-5-yl)thieno[3,2-b]pyridine-5,7-diamine], for which the EC50 on hNLRP3 inflammasome was 0.28 µM; at hTLR7 it was above 100000 nM.
